Experimental data published in the supplement of paper PMC10307832.

Key:
Test in all cases: relative viability (nuclei count vs DMSO), 5 days (fraction); higher = more cells survive
SW 1573 = tested on: SW 1573
Outline: (§1)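 Five library-drug doses in √10 steps were combined with a fixed anchor-drug dose, or a single drug was given alone, by pin tool to lung cancer cell lines in 1536-well plates the day after seeding. Nuclei were stained and counted after 5 days. Relative viability is the nuclei count in treated wells over that in vehicle wells, taken as the median of duplicate plates.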

LXF-289 = tested on: LXF-289
Outline: as §1

PC-14 = tested on: PC-14
Outline: as §1

EMC-BAC-2 = tested on: EMC-BAC-2
Outline: as §1

NCI-H2023 = tested on: NCI-H2023
Outline: as §1

H3255 = tested on: H3255
Outline: as §1

NCI-H2009 = tested on: NCI-H2009
Outline: as §1

NCI-H1734 = tested on: NCI-H1734
Outline: as §1

HOP-62 = tested on: HOP-62
Outline: as §1

NCI-H1915 = tested on: NCI-H1915
Outline: as §1

NCI-H322M = tested on: NCI-H322M
Outline: as §1

NCI-H2085 = tested on: NCI-H2085
Outline: as §1

NCI-H2126 = tested on: NCI-H2126
Outline: as §1

EPLC-272H = tested on: EPLC-272H
Outline: as §1

SK-LU-1 = tested on: SK-LU-1
Outline: as §1

LCLC-97TM1 = tested on: LCLC-97TM1
Outline: as §1

NCI-H1993 = tested on: NCI-H1993
Outline: as §1

NCI-H647 = tested on: NCI-H647
Outline: as §1

NCI-H2347 = tested on: NCI-H2347
Outline: as §1

NCI-H727 = tested on: NCI-H727
Outline: as §1

For `O=c1cc(N2CCOCC2)oc2c(-c3cccc4c3sc3ccccc34)cccc12` + CC1(C)CCC(c2ccc(Cl)cc2)=C(CN2CCN(c3ccc(C(=O)NS(=O)(=O)c4ccc(N[C@H](CCN5CCOCC5)CSc5ccccc5)c(S(=O)(=O)C(F)(F)F)c4)cc3)CC2)C1 [Navitoclax] (partner 0.5 µM), the relative viability (SW 1573; first compound 0.01 µM) was 1.04, the relative viability (SW 1573; first compound 0.03162 µM) was 1 and the relative viability (SW 1573; first compound 0.1 µM) was 1.15. It also gave a relative viability (SW 1573; first compound 0.3162 µM) of 1.06, a relative viability (SW 1573; first compound 1 µM) of 0.832 and a relative viability (LXF-289; first compound 0.01 µM) of 0.924. It also gave a relative viability (LXF-289; first compound 0.03162 µM) of 0.937, a relative viability (LXF-289; first compound 0.1 µM) of 0.938 and a relative viability (LXF-289; first compound 0.3162 µM) of 0.865. For the same compound, the relative viability (LXF-289; first compound 1 µM) was 0.916, the relative viability (PC-14; first compound 0.01 µM) was 1.09 and the relative viability (PC-14; first compound 0.03162 µM) was 0.95. It also gave a relative viability (PC-14; first compound 0.1 µM) of 1.08, a relative viability (PC-14; first compound 0.3162 µM) of 1.07 and a relative viability (PC-14; first compound 1 µM) of 1.03. It also gave a relative viability (EMC-BAC-2; first compound 0.01 µM) of 1.09, a relative viability (EMC-BAC-2; first compound 0.03162 µM) of 1.13 and a relative viability (EMC-BAC-2; first compound 0.1 µM) of 1.18. It also gave a relative viability (EMC-BAC-2; first compound 0.3162 µM) of 1.16, a relative viability (EMC-BAC-2; first compound 1 µM) of 1.17 and a relative viability (NCI-H2023; first compound 0.01 µM) of 1.07. It also gave a relative viability (NCI-H2023; first compound 0.03162 µM) of 0.912, a relative viability (NCI-H2023; first compound 0.1 µM) of 1 and a relative viability (NCI-H2023; first compound 0.3162 µM) of 0.99. The relative viability (NCI-H2023; first compound 1 µM) was 1.01, the relative viability (H3255; first compound 0.01 µM) was 0.557 and the relative viability (H3255; first compound 0.03162 µM) was 0.5. It also gave a relative viability (H3255; first compound 0.1 µM) of 0.555, a relative viability (H3255; first compound 0.3162 µM) of 0.54 and a relative viability (H3255; first compound 1 µM) of 0.527. For the same compound, the relative viability (NCI-H2009; first compound 0.01 µM) was 1.14, the relative viability (NCI-H2009; first compound 0.03162 µM) was 1.16 and the relative viability (NCI-H2009; first compound 0.1 µM) was 1.14. It also gave a relative viability (NCI-H2009; first compound 0.3162 µM) of 1.19, a relative viability (NCI-H2009; first compound 1 µM) of 1.05 and a relative viability (NCI-H1734; first compound 0.01 µM) of 0.921. The relative viability (NCI-H1734; first compound 0.03162 µM) was 0.807, the relative viability (NCI-H1734; first compound 0.1 µM) was 0.835 and the relative viability (NCI-H1734; first compound 0.3162 µM) was 0.708. The relative viability (NCI-H1734; first compound 1 µM) was 0.851, the relative viability (HOP-62; first compound 0.01 µM) was 0.935 and the relative viability (HOP-62; first compound 0.03162 µM) was 1.08. For the same compound, the relative viability (HOP-62; first compound 0.1 µM) was 1.02, the relative viability (HOP-62; first compound 0.3162 µM) was 0.854 and the relative viability (HOP-62; first compound 1 µM) was 1.07. The relative viability (NCI-H1915; first compound 0.01 µM) was 0.792, the relative viability (NCI-H1915; first compound 0.03162 µM) was 0.788 and the relative viability (NCI-H1915; first compound 0.1 µM) was 0.809. The relative viability (NCI-H1915; first compound 0.3162 µM) was 0.779, the relative viability (NCI-H1915; first compound 1 µM) was 0.824 and the relative viability (NCI-H322M; first compound 0.01 µM) was 1.34. It also gave a relative viability (NCI-H322M; first compound 0.03162 µM) of 1.17, a relative viability (NCI-H322M; first compound 0.3162 µM) of 1.19 and a relative viability (NCI-H322M; first compound 1 µM) of 1.12. For the same compound, the relative viability (NCI-H2085; first compound 0.01 µM) was 1.08, the relative viability (NCI-H2085; first compound 0.03162 µM) was 1.19 and the relative viability (NCI-H2085; first compound 0.1 µM) was 1.17. The relative viability (NCI-H2085; first compound 0.3162 µM) was 1.08, the relative viability (NCI-H2085; first compound 1 µM) was 1.02 and the relative viability (NCI-H2126; first compound 0.01 µM) was 0.845. It also gave a relative viability (NCI-H2126; first compound 0.03162 µM) of 0.839, a relative viability (NCI-H2126; first compound 0.1 µM) of 0.868 and a relative viability (NCI-H2126; first compound 0.3162 µM) of 0.889. The relative viability (NCI-H2126; first compound 1 µM) was 0.794, the relative viability (EPLC-272H; first compound 0.01 µM) was 1.11 and the relative viability (EPLC-272H; first compound 0.03162 µM) was 1.05. It also gave a relative viability (EPLC-272H; first compound 0.3162 µM) of 1.04, a relative viability (EPLC-272H; first compound 1 µM) of 1.08 and a relative viability (SK-LU-1; first compound 0.03162 µM) of 0.954. For the same compound, the relative viability (SK-LU-1; first compound 0.1 µM) was 1.1, the relative viability (SK-LU-1; first compound 0.3162 µM) was 1.18 and the relative viability (SK-LU-1; first compound 1 µM) was 0.77. The relative viability (LCLC-97TM1; first compound 0.01 µM) was 0.391, the relative viability (LCLC-97TM1; first compound 0.03162 µM) was 0.568 and the relative viability (LCLC-97TM1; first compound 0.3162 µM) was 0.362. For the same compound, the relative viability (LCLC-97TM1; first compound 1 µM) was 0.346, the relative viability (NCI-H1993; first compound 0.01 µM) was 1.02 and the relative viability (NCI-H1993; first compound 0.03162 µM) was 0.953. For the same compound, the relative viability (NCI-H1993; first compound 0.1 µM) was 0.976, the relative viability (NCI-H1993; first compound 0.3162 µM) was 0.921 and the relative viability (NCI-H1993; first compound 1 µM) was 0.887. For the same compound, the relative viability (NCI-H647; first compound 0.01 µM) was 0.985, the relative viability (NCI-H647; first compound 0.3162 µM) was 1.06 and the relative viability (NCI-H647; first compound 1 µM) was 1.1. The relative viability (NCI-H2347; first compound 0.01 µM) was 1.11, the relative viability (NCI-H2347; first compound 0.03162 µM) was 0.804 and the relative viability (NCI-H2347; first compound 0.1 µM) was 0.844. For the same compound, the relative viability (NCI-H2347; first compound 0.3162 µM) was 0.754, the relative viability (NCI-H2347; first compound 1 µM) was 0.897 and the relative viability (NCI-H727; first compound 0.01 µM) was 0.47. It also gave a relative viability (NCI-H727; first compound 0.03162 µM) of 0.512, a relative viability (NCI-H727; first compound 0.1 µM) of 0.39 and a relative viability (NCI-H727; first compound 0.3162 µM) of 0.398. The relative viability (NCI-H727; first compound 1 µM) was 0.438.
